These results are taken from patent US8269009B2, “Methods and compositions for treating liquid tumors” (Elan Pharmaceuticals, Inc., priority 2007, dated 2012).

Data set [1] is described as follows: Maximum tolerated dose of topotecan in the MOLT-4 model (Piedmont Research Center). The note with it: SCID, mouse, in vivo; MOLT-4 cell line model. As for the experimental part:
The dose level of 12 mg/kg topotecan was determined as maximum tolerated dose in the MOLT-4 cell line by Piedmont Research Center. Since maximal biologic effect can occur at a dose much lower than the MTD, we had included ½ the maximum tolerated (½MTD=6 mg/kg) (see Marx, G M et al., Journal of Clin One 2002; 20(6): 1446-1448).

Data set [2] has as its system neovascularization of the cornea. Kind of data set: Mouse corneal micropocket angiogenesis assay (VEGF pellet). The format is in vivo, C57BL/6 mice. On the procedure:
Fifty-five Charles River (Wilmington, N.C.) female C57BL/6 mice were available for the study. […] On Day 1 (Oct. 9, 2007) the Hydron pellets were implanted into corneal pocket cut in one eye of mice; pellets containing 200 ng/animal VEGF were implanted in Groups 2-6. Mice were anesthetized with 90 mg/kg pentobarbital, IP, immediately prior to implantation surgery; pellet implantation was performed according to Piedmont SOP which the test facility described as an adaptation of the method described by Kenyon et al (B M Kenyon, E E Voest, C C Chen, E Flynn, J Folkman, R J D'Amato, 1996, A model of angiogenesis in the mouse cornea, Investigative Opthalmology & Visual Science, Vol 37 No 8, 1625-1632). […]
Body weights were taken every day throughout the study. […] The vessel length of the longest blood vessel to have grown upward from the limbus was measured (VL) as was the circumference of vessel growth or clock hour (CH). The area of neovascularization was calculated using the formula: Area (mm^2)=πVL×CH×0.2. In addition to reporting the vessel length, clock hour, and calculated area of neovascularization, the percent neovascularization compared to the VEGF-treated negative control (Group 2) was reported. statistical significance by Kruskal-Wallis-Dunn with comparison to Group 2 and mean body weight nadir (the lowest group mean body weight, as a percent change from Day 1. […]

`CC[C@@]1(O)C(=O)OCc2c1cc1n(c2=O)Cc2cc3c(CN(C)C)c(O)ccc3nc2-1` [topotecan]: the MTD (usually the highest dose tested that stayed within the study's limit of toxicity) in data set [1] came out at 12 mg/kg.
In data set [2] (10 mg/kg IP, qd x 6 from Day 2), “bevacizumab: bevacizumab (Avastin, Genentech), an anti-VEGF monoclonal antibody” displayed a Percent neovascularization of 0%. In addition, the “Changes in body weight vs untreated group” value in data set [2] (mouse, in vivo) is on record as “no significant changes”.
